Key:
[1] = molecular target: T1, human recombinant MLK3 protein (Homo sapiens, UniProt Q16584); assay: MLK3 kinase activity assay (Eurofins, gamma-33P-ATP, filtermat scintillation counting); assay type: biochemical; settings: human recombinant MLK3, 120 minutes at room temperature
T1 construct: purchased Eurofins

[2] = molecular target: T2, human recombinant LRRK2 protein (Homo sapiens, UniProt Q5S007); assay: LRRK2 kinase activity assay (Eurofins, gamma-33P-ATP, filtermat scintillation counting); assay type: biochemical; settings: human recombinant LRRK2, 40 minutes at room temperature
T2 construct: purchased Eurofins

HS746T cancer cells = assay: Anticancer activity, cell viability by CCK-8, HS746T; assay type: cell-based; settings: 72 hours
Method in brief: (§1)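 HS746T or HepG2 cells seeded at 4,000 cells/well, left 24 h, then exposed to compounds for 72 h. Viability measured by CCK-8 and expressed as % of untreated control.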

HepG2 cancer cells = assay: Anticancer activity, cell viability by CCK-8, HepG2; assay type: cell-based; settings: HepG2, 10 μM, 72 hours
Method in brief: as §1

T2 sequence (Q5S007 whole entry): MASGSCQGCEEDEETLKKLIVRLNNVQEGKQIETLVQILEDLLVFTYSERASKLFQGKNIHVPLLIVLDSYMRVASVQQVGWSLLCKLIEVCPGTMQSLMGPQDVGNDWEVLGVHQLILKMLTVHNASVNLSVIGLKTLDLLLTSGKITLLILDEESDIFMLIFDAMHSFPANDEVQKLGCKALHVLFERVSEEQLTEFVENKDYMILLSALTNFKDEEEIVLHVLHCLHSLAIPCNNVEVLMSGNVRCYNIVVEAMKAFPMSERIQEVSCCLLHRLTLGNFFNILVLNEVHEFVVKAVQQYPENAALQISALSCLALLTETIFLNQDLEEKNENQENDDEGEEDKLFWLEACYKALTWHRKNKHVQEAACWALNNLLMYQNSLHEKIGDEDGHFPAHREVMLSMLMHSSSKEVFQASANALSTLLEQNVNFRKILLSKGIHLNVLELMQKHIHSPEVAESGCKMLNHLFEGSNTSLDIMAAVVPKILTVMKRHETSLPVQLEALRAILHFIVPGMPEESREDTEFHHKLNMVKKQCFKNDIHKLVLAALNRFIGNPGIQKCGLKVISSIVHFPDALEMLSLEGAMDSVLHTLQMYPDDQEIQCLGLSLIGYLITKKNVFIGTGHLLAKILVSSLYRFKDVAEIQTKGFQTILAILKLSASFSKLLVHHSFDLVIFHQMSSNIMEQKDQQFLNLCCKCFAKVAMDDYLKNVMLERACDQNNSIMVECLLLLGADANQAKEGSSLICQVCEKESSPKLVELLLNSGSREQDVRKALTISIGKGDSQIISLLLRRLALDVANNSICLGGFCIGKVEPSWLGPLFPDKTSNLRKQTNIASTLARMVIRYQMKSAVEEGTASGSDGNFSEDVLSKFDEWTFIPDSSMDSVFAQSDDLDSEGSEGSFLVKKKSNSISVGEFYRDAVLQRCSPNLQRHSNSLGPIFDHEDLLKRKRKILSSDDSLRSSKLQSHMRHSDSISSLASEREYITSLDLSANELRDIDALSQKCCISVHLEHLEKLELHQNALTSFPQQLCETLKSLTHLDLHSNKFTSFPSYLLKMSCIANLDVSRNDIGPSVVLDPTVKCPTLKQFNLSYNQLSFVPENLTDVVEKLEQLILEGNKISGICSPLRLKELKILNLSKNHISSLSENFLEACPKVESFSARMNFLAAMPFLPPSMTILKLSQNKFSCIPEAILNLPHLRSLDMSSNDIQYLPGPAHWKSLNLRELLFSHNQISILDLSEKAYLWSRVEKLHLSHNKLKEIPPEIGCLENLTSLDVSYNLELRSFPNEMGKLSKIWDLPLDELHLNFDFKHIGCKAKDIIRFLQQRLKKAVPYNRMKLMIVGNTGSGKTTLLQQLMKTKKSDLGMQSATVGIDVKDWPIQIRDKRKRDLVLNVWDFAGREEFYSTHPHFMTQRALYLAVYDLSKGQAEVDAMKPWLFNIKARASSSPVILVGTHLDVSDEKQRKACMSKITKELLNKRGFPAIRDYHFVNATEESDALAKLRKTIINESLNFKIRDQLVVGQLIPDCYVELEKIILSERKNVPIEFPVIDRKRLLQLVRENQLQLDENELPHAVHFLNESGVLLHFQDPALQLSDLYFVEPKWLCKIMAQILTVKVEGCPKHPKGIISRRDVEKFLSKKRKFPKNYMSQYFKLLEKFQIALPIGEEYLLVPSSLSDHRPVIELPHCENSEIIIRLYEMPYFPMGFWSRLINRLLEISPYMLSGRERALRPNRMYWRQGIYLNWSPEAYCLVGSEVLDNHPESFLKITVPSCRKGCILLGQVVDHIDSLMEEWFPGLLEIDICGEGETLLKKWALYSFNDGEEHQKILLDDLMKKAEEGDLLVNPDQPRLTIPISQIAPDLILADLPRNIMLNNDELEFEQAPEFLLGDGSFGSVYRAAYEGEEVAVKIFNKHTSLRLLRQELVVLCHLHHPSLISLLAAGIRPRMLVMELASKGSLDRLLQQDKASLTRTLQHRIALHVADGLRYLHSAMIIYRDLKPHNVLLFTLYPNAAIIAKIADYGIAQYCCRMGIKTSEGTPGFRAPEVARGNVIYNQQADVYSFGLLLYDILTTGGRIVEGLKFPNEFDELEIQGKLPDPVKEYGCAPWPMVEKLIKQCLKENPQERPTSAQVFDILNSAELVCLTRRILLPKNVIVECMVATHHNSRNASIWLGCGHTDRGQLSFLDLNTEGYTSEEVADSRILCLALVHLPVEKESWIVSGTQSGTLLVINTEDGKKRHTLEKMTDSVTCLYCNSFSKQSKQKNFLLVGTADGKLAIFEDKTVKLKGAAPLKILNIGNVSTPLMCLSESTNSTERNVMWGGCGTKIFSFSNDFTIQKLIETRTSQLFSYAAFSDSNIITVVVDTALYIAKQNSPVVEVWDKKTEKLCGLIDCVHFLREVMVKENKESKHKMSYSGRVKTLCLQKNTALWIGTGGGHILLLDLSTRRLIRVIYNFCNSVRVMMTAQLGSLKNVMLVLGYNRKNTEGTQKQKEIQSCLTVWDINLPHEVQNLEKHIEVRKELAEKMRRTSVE
T1 sequence (Q16584 whole entry): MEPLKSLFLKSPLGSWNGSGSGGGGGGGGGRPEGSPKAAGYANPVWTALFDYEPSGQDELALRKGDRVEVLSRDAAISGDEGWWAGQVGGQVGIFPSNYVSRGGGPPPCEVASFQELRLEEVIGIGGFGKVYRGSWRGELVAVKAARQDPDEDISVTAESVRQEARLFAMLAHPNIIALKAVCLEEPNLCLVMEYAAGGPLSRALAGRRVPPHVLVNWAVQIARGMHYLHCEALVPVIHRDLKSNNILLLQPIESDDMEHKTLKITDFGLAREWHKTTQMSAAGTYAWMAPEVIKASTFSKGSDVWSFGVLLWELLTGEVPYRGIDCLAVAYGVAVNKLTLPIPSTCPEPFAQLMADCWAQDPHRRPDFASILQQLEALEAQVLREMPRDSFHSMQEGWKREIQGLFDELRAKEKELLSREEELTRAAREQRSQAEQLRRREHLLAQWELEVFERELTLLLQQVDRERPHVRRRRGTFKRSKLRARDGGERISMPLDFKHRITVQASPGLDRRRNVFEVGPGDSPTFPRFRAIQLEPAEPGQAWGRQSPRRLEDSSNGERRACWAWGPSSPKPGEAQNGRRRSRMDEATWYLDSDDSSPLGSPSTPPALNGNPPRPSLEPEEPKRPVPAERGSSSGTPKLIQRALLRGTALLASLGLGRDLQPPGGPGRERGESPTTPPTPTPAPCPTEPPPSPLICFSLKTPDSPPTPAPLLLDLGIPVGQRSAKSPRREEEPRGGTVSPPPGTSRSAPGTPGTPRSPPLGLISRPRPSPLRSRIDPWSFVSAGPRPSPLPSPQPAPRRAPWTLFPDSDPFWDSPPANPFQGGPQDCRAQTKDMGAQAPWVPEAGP

Compound | IC50 [1] [nM] | IC50 [2] [nM] | Cell viability (% of Con. 10 μM) HS746T (HS746T cancer cells) | Cell viability (% of Con. 10 μM) HepG2 (HepG2 cancer cells)
CP(C)(=O)c1ccccc1Nc1nc(Nc2ccc3[nH]nc(-c4ccc(F)c(Cl)c4)c3c2)ncc1Cl [compound 107, (2-((5-Chloro-2-((3-(3-chloro-4-fluorophenyl)-1H-indazol-5-yl)amino)pyrimidin-4-yl)amino)phenyl)dimethylphosphine oxide] | 1 to 10 | 1 to 10 | 11 % of Con. | 63 % of Con.
CC(C)(C)OC(=O)N1CCN(c2ccc(-c3n[nH]c4ccc(Nc5ncc(Cl)c(Nc6ccccc6P(C)(C)=O)n5)cc34)cc2)CC1 [compound 117, Tert-butyl 4-(4-(5-((5-chloro-4-((2-(dimethylphosphoryl)phenyl)amino)pyrimidin-2-yl)amino)-1H-indazol-3-yl)phenyl)piperazine-1-carboxylate] | 1 to 10 | 10 to 100 | 20 % of Con. | 68 % of Con.
CP(C)(=O)c1ccccc1Nc1nc(Nc2ccc3[nH]nc(-c4cccc([N+](=O)[O-])c4)c3c2)ncc1Cl [compound 97, (2-((5-Chloro-2-((3-(3-nitrophenyl)-1H-indazol-5-yl)amino)pyrimidin-4-yl)amino)phenyl)dimethylphosphine oxide] | 1 to 10 | 1 to 10 | 11 % of Con. | 21 % of Con.
CP(C)(=O)c1ccccc1Nc1nc(Nc2ccc3[nH]ccc3c2)ncc1Cl [compound 65, (2-((2-((1H-Indol-5-yl)amino)-5-chloropyrimidin-4-yl)amino)phenyl)dimethylphosphine oxide] | 1 to 10 | 1 to 10 | 23 % of Con. | 20 % of Con.
